Experimental data reported in patent publication US11559586B2, “Nanoparticles for treatment of choroidal neovascularization and other indications” (Children's Medical Center Corporation, priority 2018, dated 2023).

Test system: laser-induced choroidal neovascularization
Assay: Therapeutic study in laser-induced choroidal neovascularization model, CNV neovessel area
Format: in vivo, C57BL/6 mice
Details: free drug, IV day 1, 3, 5; equal dose of doxorubicin
Description: Therapeutic effects of phototriggered activation of nanoparticles in CNV. The mouse model of laser-induced choroidal neovascularization mimics the neovascular aspect of wet AMD, and has been used extensively in studies of that disease. However, unlike the chronic development of wet AMD in human, the laser-induced mouse CNV model is acute—the optimum time point to assess neovessels in this model is between day 7 and day 14. After 14 to 21 days, spontaneous regression begins and lesion size decreases. The dosing regimen in this example was determined accordingly: treatment was initiated on day 7 when the lesions had formed, and its effects were assessed before spontaneous regression would begin on day 14.
In the in vivo therapeutic study, 200 microliters of PBS containing 1 mg of NP-[CPP]-doxo encapsulating 0.02 mg doxorubicin were injected via tail vein one week after photocoagulation (day 1 of treatment), and additional injections were given on day 3 and day 5. […] (The three drug-loaded groups contained equal doses of doxorubicin.) On day 7, mice were euthanized, the size of CNV lesions were assessed by fluorescent imaging of choroidal flat-mounts stained with isolectin GS-IB4 (which labels endothelial cells). […]

SMILES: COc1cccc2c1C(=O)c1c(O)c3c(c(O)c1C2=O)C[C@@](O)(C(=O)CO)C[C@@H]3O[C@H]1C[C@H](N)[C@H](O)[C@H](C)O1 [doxorubicin]
- reduction in neovessel area compared to PBS group: 26.8%
